We go through two molecules from patent publication US12002595B2, “Separation of metal ions by liquid-liquid extraction” (priority 2016, dated 2024).

Read-outs that look alike come from different tables or passages of the source.

A short description of data set [1]: Extraction by HDEHP with 1 mM 343HOPO in 0.1 M HNO3 and 1.9 M NaNO3. The procedure:
Aqueous phase: 1 mM 343HOPO in 0.1 M HNO3 and 1.9 M NaNO3. Organic phase: HDEHP in kerosene.
A log scale is used for clarity. See FIGS. 58A and 58B for results as a function of the phase ratio.
For Example 20—Example 24, pH measurements were performed with a glass electrode (Metrohm-Micro Combi-response to [H+]) calibrated at 25.0° C. using three NIST standards. Extraction samples were analyzed by liquid scintillation counting (LSC). The distribution coefficient, D(M), of a given metal, M, is defined in Eq. 1, where [M]organic and [M]aqueous are the respective total concentrations of M in the organic and aqueous layers, after extraction. Both concentrations are proportional to the volumetric activity (in Bq/L) determined by LSC. The separation factor, SFM1/M2, between two metals, M1 and M2, and extraction yield were calculated according to Eq. 2 and Eq. 3, respectively.
In a typical experiment, the solvent (extractant diluted in kerosene) was pre-conditioned by shaking one volume of solvent with three volumes of aqueous phase (typically HNO3) at room temperature for 1 h, thrice. For radioisotope extractions, at least 400 μL aqueous phase (typically containing HNO3, a chelator and a radioisotope) and solvent were placed in air-tight screw-capped plastic tubes, triply-contained, and shaken in a thermoshaker at 300 rpm, 25° C., for at least 30 min. Samples were then centrifuged for 5 min at 3000 rpm and phases separated before analysis. LSC analyses were performed on a Packard Tri-Carb B4430 instrument (Perkin Elmer) after mixing sample aliquots or sample dilution aliquots (10 to 200 μL) with 10 mL of scintillation cocktail (UltimaGold LLT). Samples were counted for at least 6 min and results were background subtracted. The analytical samples contained between 0 and 800,000 CPM. Mixtures of ^249Bk and ^249Cf were analyzed using α/β discrimination and energy windows were set to 0-50 keV for low-energy β particles of ^249Bk and 50-1000 keV for α particles of ^249Cf. ^243Am and ^225Ac samples were counted at secular equilibrium.

The conditions of data set [2]: cited from earlier work.
For data set [3] the following is noted: Eu(III), cited from earlier work.
The nature of data set [4]: Extraction by HDEHP as a function of pH with hold-back reagent. As to the method:
All liquid-liquid extractions were conducted using a 1:1 organic to aqueous phase ratio for a total volume of 1 mL. Samples were pH adjusted by HNO3 and prepared for a final concentration of 1.0 M sodium lactate, 40 mM of hold-back reagent (160 mM in the case of the HOPO monomer), and 2.0 M Na^+. The concentration of the trivalent f-element was dependent on the availability and radioactivity of the isotopes. The organic phase consisted of 0.5 M HDEHP in kerosene. All samples were incubated in a thermostatic shaker held at 28° C. and rocked at 280 rpm for 90 minutes. To ensure complete phase separation, samples were left overnight at room temperature to equilibrate. Radioactive samples were analyzed by liquid scintillation counting (LSC). The analytical protocol consisted of diluting 10 uL of radioactive sample into 10 mL of Ultima Gold™. Ultima Gold™ is a commercially available analytical reagent commonly used for LSC. The resulting analytical samples were shaken for 10 min prior to counting on a Perkin-Elmer Packard Tri-Carb instrument (model B4430).
Data was analyzed by the distribution ratio (Dm), separation factor (SFm1/m2) and extraction percentage (% Extraction) as defined by Equations (6), (7) and (8), respectively. Equation (8) uses concentrations of the metal in each phase since the aqueous: organic ratio was 1. Both the organic and aqueous phases were analyzed after liquid-liquid extraction and phase separation. These calculation methods rely on the assumptions that no metal (M) is lost to sorption or precipitation and that no volume variation occurred during the mass transfer between the aqueous and organic phases.
In FIG. 23, aqueous phase: [ligand]=40 mM, buffer sodium lactate/sodium nitrate. Organic phase: [HDEHP]=0.5 M, kerosene diluent. T=25° C. O/A=1, one contact. Initial metal concentrations: [Ac-225]=0.4 nM, [Am-243]=40.4 nM, or [Gd]=500 μM (spiked with Gd-153 for LSC measurements).

`O=C(NCCCN(CCCCN(CCCNC(=O)c1cccc(=O)n1O)C(=O)c1cccc(=O)n1O)C(=O)c1cccc(=O)n1O)c1cccc(=O)n1O` [3,4,3-LI(1,2-HOPO)]: the SFBk/Lu in data set [1] (single step, room temperature, HDEHP-HNO3-343HOPO system) is ≤ 320,000. In addition, in data set [2], the “Last pKa” value is recorded as 6.64. Besides, the “overall acidity (ΣpKa)” value in data set [2] (literature value compared with ΣpKa5-8 of 3,4,3-LI(CAM)) is 21.2. Besides, the “log β111” value in data set [3] (I=0.1 M at 25° C.) is listed as 24.8. Also, the “extraction of Am^3+” value in data set [4] (pH higher than 1, 40 mM ligand, 0.5 M HDEHP) is given as “No extraction”.

Turning to `O=C(O)CN(CCN(CC(=O)O)CC(=O)O)CCN(CC(=O)O)CC(=O)O` [DTPA, Diethylenetriaminepentaacetic acid, reference compound], the “separation between Bk and Cf” value in data set [1] (chelator in place of 343HOPO, acidic conditions) was “no separation at all”. Moreover, in data set [2], the “Last pKa” value is 10.4. In data set [3] (I=2.0 M at 25° C.), the “log β111” value was 22.56. For the same molecule, the “maximum metal extraction of Am(III)” value in data set [4] (around pH 1.5) worked out at 78%. Further, the “extraction of Am(III)” value in data set [4] (at pH 4) is “less than 10%”. The “Extraction of Gd(III)” value in data set [4] (until after pH 4) is “above 90%”.
